In PMC9729294 (Scientific Reports, 2022):

Experiments:
Candida albicans = experiment: Antifungal disc diffusion, C. albicans; type: cell-based; details: Nil = zero inhibition
Experimental: (§1) The ligand and its metal(II) complexes were evaluated for antimicrobial activity against two strains, gram-positive bacteria (Staphylococcus aureus and Staphylococcus faecalis), gram-negative bacteria (Escherichia coli and Pseudomonas aeruginosa) and pathogenic fungi (Candida albicans), using DMSO as a negative control. […] The antimicrobial activity of the tested samples was determined using a modified Kirby-Bauer disc diffusion method. All the synthesized compounds were dissolved to prepare a stock solution of 1 mg/mL using DMSO. Stock solution was aseptically transferred, and two-fold diluted to have solutions of different concentrations. The antibacterial and antifungal activities of test compounds were done by filter paper disc method[21] and the activities were determined by measuring the diameters of the inhibition zone (mm). Media with DMF was set up as a control. All cultures were routinely maintained on NA (nutrient agar) and incubated at 37 °C. The inoculums of bacteria were performed by growing the culture in NA broth at 37 °C for overnight. Approximately, 0.1 mL of diluted bacterial or fungal culture suspension was spread with the help of spreader on NA plates uniformly. Solutions of the tested compounds and reference drugs were prepared by dissolving 10 mg of the compound in 10 mL DMF. […]

Escherichia coli = experiment: Antimicrobial disc diffusion, E. coli; type: cell-based; details: Nil = zero inhibition
Experimental: as §1

[1] = DPPH radical scavenging assay; type: biochemical; details: for DPPH radical scavenging activity (% inhibition): Standard = ascorbic acid (vitamin C)
Experimental: The oxidative scavenging activity of the ligand and its complexes was evaluated by DPPH (4 mg/100 ml methanol) Zengin, et al.[16]. Briefly, equal volumes of different concentrations ([…], 0.1, 0.2, 0.3, 0.4 and 0.5 mg/mL DMSO) of the tested components were added to DPPH reagent using ascorbic acid as a reference. All the investigated tests were shaken and incubated at room temperature in the dark for 30 min. The decrease in DPPH radicals was evaluated at 490 nm using an ELISA reader. Each test was performed in triplicate. The radical scavenging power was estimated as a percentage of DPPH inhibition using the equation: %inhibition=[(A \, control-A \, sample)/A \, control]×100.

Pseudomonas aeruginosa = experiment: Antimicrobial disc diffusion, P. aeruginosa; type: cell-based; details: Nil = zero inhibition
Experimental: as §1

[2] = Nitric oxide scavenging assay (sodium nitroprusside / Griess reagent); type: biochemical; details: Standard = ascorbic acid
Experimental: The nitric oxide scavenging activity of the ligand and its complexes was evaluated following a reported procedure Padmaja, et al.[17]. […] The samples were added to 150 µL Griess reagent (1% sulfanilamide and 0.1% naphthyl ethylenediamine hydrochloride in 2.5% orthophosphoric acid) and incubated at 25 °C for 30 min. The absorbance (A) was read at 540 nm using an ELISA reader. The experiment was repeated in triplicate, and ascorbic acid was used as a standard. The scavenged activity of NO was calculated using the equation %inhibition=[(A \, control-A \, sample)/A \, control]×100.

Staphylococcus aureus = experiment: Antimicrobial disc diffusion, S. aureus; type: cell-based; details: Nil = zero inhibition
Experimental: as §1

[3] = tested on: red blood cell (RBC) membrane; experiment: Membrane stabilization (antihemolytic) activity, hypotonic solution-induced RBC lysis; type: cell-based, human
Experimental: Anti-inflammatory activities were evaluated through the antihemolytic membrane stabilization effect of the ligand and its metal complexes using a red blood cell (RBC) membrane stabilization method. Fresh whole blood samples were collected in anticoagulant tubes from a healthy volunteer who was not treated with any nonsteroidal anti-inflammatory drugs (NSAIDs) for 2 weeks before the experiment. Erythrocytes were extracted by centrifugation at 3000 rpm for 5 min. The anticoagulated cells were washed 3 times with 0.9% saline and centrifuged at 3000 rpm for 10 min. An RBC suspension (40% v/v) was prepared using isotonic saline phosphate buffer (0.15 M NaCl and 10 mM sodium phosphate buffer, pH 7.4). One milliliter of phosphate buffer (0.15 M, pH 7.4) was added to one mL of various concentrations of the tested compounds (0.05, 0.1, 0.2, 0.3, 0.4 and 0.5 mg/mL DMSO) and 2 mL sodium chloride solution (0.25%). In the control tube, one distilled water was used instead of the tested compounds. Different concentrations of nonsteroidal anti-inflammatory drug (diclofenac potassium) were used as standards. Then, 100 µL of RBC suspension was added to each tube and incubated at room temperature for 60 min. After incubation, the samples were centrifuged for 10 min at 3000 rpm. The absorbance of the supernatant was detected at 540 nm using an ELISA reader. The inhibition of hemolysis in the samples was evaluated according to the equation: %Inhibition \, of \, hemolysis=A \, control-A \, sample/A \, control×100.

[4] = Reducing power assay (ferricyanide, absorbance at 700 nm); type: biochemical; details: Standard = ascorbic acid
Experimental: The reducing power capacity of the investigated compounds was evaluated by the method of Oyaizu[18]. Then, 0.5 mL of different concentrations ([…], 0.1, 0.2, 0.3, 0.4 and 0.5 mg/mL in DMSO) was added to 0.5 mL of sodium phosphate buffer (0.2 M, pH 6.6) and 0.5 mL of 1% potassium ferricyanide. The samples were incubated at 50 °C for 20 min. Then, 0.5 mL trichloroacetic acid (10%) was added and centrifuged at 3000 rpm for 15 min. The supernatant (1.0 mL) was incubated with 1.0 mL H2O2 and 0.2 mL of 1% ferric chloride for 30 min. The absorbance of the samples was measured at 700 nm. Ascorbic acid was used as a standard. An increase in the absorbance value indicates a higher reducing power.

Staphylococcus faecalis = experiment: Antimicrobial disc diffusion, S. faecalis; type: cell-based; details: Nil = zero inhibition
Experimental: as §1

[5] = tested on: Acetylcholinesterase (AChE); experiment: AChE inhibition (Ellman method, brain homogenate); type: biochemical; details: Standard = donepezil
Experimental: Acetylcholinesterase (AChE) activity was evaluated according to a previously reported method. Briefly, 10 μL of different concentrations of the tested compounds (test) or organic solvent (control) was added to 130 μL of phosphate buffer (pH 7.4, 0.1 M) and 20 μL of brain homogenate and then incubated at 37 °C for 45 min. Then, 5 μL of […] (75 mM) was added and incubated for 15 min at 37 °C. After incubation, […] of 0.32 mM DTNB was added. […] The percent inhibition of AChE was calculated as follows: %inhibition \, of \, […]=[A \, control--A \, sample/A \, control]×100.

[6] = Homo sapiens, Erythrocyte, read-out: Inhibition of RBC hemolysis (membrane stabilization)

C[C@@H]1[C@H](O)[C@@H](C)/C=C/C=C/C=C/C=C/C=C/C=C/C=C/[C@H](O[C@@H]2O[C@H](C)[C@@H](O)[C@H](N)[C@@H]2O)C[C@@H]2O[C@](O)(C[C@@H](O)C[C@@H](O)[C@H](O)CC[C@@H](O)C[C@@H](O)CC(=O)O[C@H]1C)C[C@H](O)[C@H]2C(=O)O [Amphotericin B, reference compound]
Inhibition zone diameter (Candida albicans): 20 mm/mg sample

Oc1ccc2ccccc2c1/C=N/c1ccc(Cc2ccc(/N=C/c3c(O)ccc4ccccc34)cc2)cc1 [Ligand]
Inhibition zone diameter (Escherichia coli): Nil | DPPH radical scavenging activity (% inhibition) ([1]; 0.05 mg/mL): 11.5 ± 0.95% | DPPH radical scavenging activity (% inhibition) ([1]; 0.1 mg/mL): 17.53 ± 0.85% | DPPH radical scavenging activity (% inhibition) ([1]; 0.2 mg/mL): 25.33 ± 0.81% | DPPH radical scavenging activity (% inhibition) ([1]; 0.3 mg/mL): 31.13 ± 0.65% | DPPH radical scavenging activity (% inhibition) ([1]; 0.4 mg/mL): 38.83 ± 0.81% | DPPH radical scavenging activity (% inhibition) ([1]; 0.5 mg/mL): 44.43 ± 0.70% | Inhibition zone diameter (Pseudomonas aeruginosa): Nil | NO scavenging (% inhibition) ([2]; 0.05 mg/mL): 15.8 ± 0.78% | NO scavenging (% inhibition) ([2]; 0.1 mg/mL): 21.37 ± 1.38% | NO scavenging (% inhibition) ([2]; 0.2 mg/mL): 27.13 ± 1.58% | NO scavenging (% inhibition) ([2]; 0.3 mg/mL): 37.27 ± 0.97% | NO scavenging (% inhibition) ([2]; 0.4 mg/mL): 42.7 ± 1.78% | NO scavenging (% inhibition) ([2]; 0.5 mg/mL): 47.65 ± 1.49% | Inhibition zone diameter (Staphylococcus aureus): Nil | Inhibition zone diameter (Candida albicans): Nil | inhibition at 50 µg/mL [3, 6]: 11.8 ± 1.01% | inhibition at 100 µg/mL [3, 6]: 19.8 ± 0.75% | inhibition at 200 µg/mL [3, 6]: 26.9 ± 0.44% | inhibition at 300 µg/mL [3, 6]: 32.7 ± 0.8% | inhibition at 400 µg/mL [3, 6]: 38.5 ± 1.16% | inhibition at 500 µg/mL [3, 6]: 43.4 ± 0.68% | Reducing power (absorbance at 700 nm) ([4]; 0.05 mg/mL): 0.10 ± 0.01 | Reducing power (absorbance at 700 nm) ([4]; 0.1 mg/mL): 0.13 ± 0.001 | Reducing power (absorbance at 700 nm) ([4]; 0.2 mg/mL): 0.17 ± 0.01 | Reducing power (absorbance at 700 nm) ([4]; 0.3 mg/mL): 0.20 ± 0.01 | Reducing power (absorbance at 700 nm) ([4]; 0.4 mg/mL): 0.23 ± 0.001 | Reducing power (absorbance at 700 nm) ([4]; 0.5 mg/mL): 0.29 ± 0.01 | Inhibition zone diameter (Staphylococcus faecalis): Nil | AChE percent inhibition ([5]; 0.05 mg/mL): 17.70 ± 1.04% | AChE percent inhibition ([5]; 0.1 mg/mL): 21.83 ± 1.5% | AChE percent inhibition ([5]; 0.2 mg/mL): 27.27 ± 1.16% | AChE percent inhibition ([5]; 0.3 mg/mL): 32.90 ± 1.61% | AChE percent inhibition ([5]; 0.4 mg/mL): 38.57 ± 1.0% | AChE percent inhibition ([5]; 0.5 mg/mL): 41.97 ± 1.08%

CN(C)[C@@H]1C(O)=C(C(N)=O)C(=O)[C@@]2(O)C(O)=C3C(=O)c4c(O)cccc4[C@@](C)(O)[C@H]3C[C@@H]12 [Tetracycline, reference compound]
Inhibition zone diameter (Escherichia coli): 32 mm/mg sample | Inhibition zone diameter (Pseudomonas aeruginosa): 33 mm/mg sample | Inhibition zone diameter (Staphylococcus aureus): 32 mm/mg sample | Inhibition zone diameter (Staphylococcus faecalis): 33 mm/mg sample

O=C1O[C@H]([C@@H](O)CO)C(O)=C1O [ascorbic acid, reference compound]
DPPH IC50 [1]: 145 µg/mL

O=C([O-])Cc1ccccc1Nc1c(Cl)cccc1Cl.[K+] [diclofenac potassium, reference compound]
Antihemolytic activity toward RBCs IC50 ([3]; hypotonic solution-induced lysis): 120 µg/mL
